Experimental data reported in patent US20260232634A1, “TREATMENT OF PEDIATRIC CANCERS USING GYLCOGEN SYNTHASE KINASE FORM B INHIBITORS” (Actuate Therapeutics Inc., priority 2023, published 2026).
Values joined by “and” are separate entries in the source; they are usually repeats but may differ in a detail not shown here. Equal entries are not always repeated. “Also recorded” adds a separate entry of the source.

Assays:
[1] = Human pharmacokinetics of 9-ING-41 from study NCT03678883; conditions: in vivo, intravenous, dose 9.3 mg/kg (current dose)
From the text: Example 1. Human Pharmacokinetics of 9-ING-41 from Study

[2] = tested on: refractory malignancies; test: Phase 1/2 study of 9-ING-41 as a single agent or with chemotherapy in pediatric patients with refractory malignancies; type: in vivo, human (pediatric patients); conditions: for OS (overall survival) / Notes (response): intermediate data; for Best Response / Status Last FUP / Survival: unaudited data
[3] = 1801 adult study, tolerated dose level; type: in vivo, human (adult)
[4] = tested on: 93T449 liposarcoma cell line; test: Western blot analysis after 9-ING-41 treatment; type: cell-based, Human; conditions: 93T449, pretreated at IC5072, harvested after 48 hours
Procedure: (§1) Saos-2 osteosarcoma and 93T449 liposarcoma cell lines were pretreated at IC5072 with small molecule GSK-3 inhibitor 9-ING-41 (elraglusib). The cells were harvested for western blot analysis after 48 hours of treatment. Additionally, both cancer cell lines as well as TALL-104 T-cells and NK-92 NK cells were treated with 0.5 μM 9-ING-41 for 24 hours and harvested for Luminex cytokine profiling. […] Additionally, an increase in PD-L1 expression was observed. […] Follow-up cytokine profiling is in progress. […] The potential synergistic effect of these two therapies is currently under investigation with co-culture experiments of sarcoma and immune cells. The treatment cohorts for these experiments include 9-ING-41 combined with either anti-PD-L1, anti-PD-1, or anti-CTLA-4 immune checkpoint inhibitors.

[5] = tested on: Saos-2 osteosarcoma cell line; test: Western blot analysis after 9-ING-41 treatment; type: cell-based, Human; conditions: Saos-2, pretreated at IC5072, harvested after 48 hours
Procedure: as §1

[6] = tested on: NK-92 NK cells; test: Luminex cytokine profiling; type: cell-based; conditions: NK-92 cells, 0.5 μM 9-ING-41 for 24 hours
Procedure: as §1

[7] = tested on: TALL-104 T-cells; test: Luminex cytokine profiling; type: cell-based; conditions: 0.5 μM 9-ING-41 for 24 hours
Procedure: as §1

[8] = tested on: 93T449 liposarcoma cell line; test: Luminex cytokine profiling; type: cell-based, Human; conditions: 93T449, 0.5 μM 9-ING-41 for 24 hours
Procedure: as §1

[9] = tested on: Saos-2 osteosarcoma cell line; test: Luminex cytokine profiling; type: cell-based, Human
Procedure: as §1

[10] = CIC rearranged sarcoma patient, elraglusib 15 mg/kg + Cyclophosphamide/topotecan
[11] = Ependymoma patient, elraglusib 9.3 mg/kg + Cyclophosphamide/topotecan
[12] = Ependymoma patient, elraglusib 12.4 mg/kg, chemotherapy backbone N/A
[13] = Ependymoma patient, elraglusib 15 mg/kg + Irinotecan
[14] = Ewing sarcoma patient, 9-ING-41 9.3 mg/kg + Cyclophosphamide/topotecan
[15] = Ewing sarcoma patient, elraglusib 9.3 mg/kg + Cyclophosphamide/topotecan
[16] = Ewing sarcoma patient, elraglusib 12.4 mg/kg + Cyclophosphamide/topotecan
[17] = Ewing sarcoma patient, elraglusib 15 mg/kg + Cyclophosphamide/topotecan
[18] = Glioblastoma multiforme (GBM) patient, elraglusib 12.4 mg/kg + Cyclophosphamide/topotecan
[19] = Neuroblastoma patient, 9-ING-41 12.4 mg/kg + Cyclophosphamide/topotecan
[20] = Neuroblastoma patient, elraglusib 9.3 mg/kg + Irinotecan
[21] = Neuroblastoma patient, elraglusib 12.4 mg/kg + Cyclophosphamide/topotecan
[22] = Neuroblastoma patient, elraglusib 12.4 mg/kg + Irinotecan
[23] = Neuroblastoma patient, elraglusib 15 mg/kg + Cyclophosphamide/topotecan
[24] = Osteosarcoma patient, elraglusib 9.3 mg/kg + Cyclophosphamide/topotecan
[25] = Rhabdomyosarcoma patient, elraglusib 9.3 mg/kg + Irinotecan
[26] = seven metastatic, refractory Ewing and Ewing-like sarcoma patients, elraglusib+cyclophosphamide/topotecan

## Cn1cc(C2=C(c3coc4ccc(F)cc34)C(=O)NC2=O)c2cc3c(cc21)OCO3 [9-ING-41, 3-(5-Fluorobenzofuran-3-yl)-4-(5-methyl-5H-[1,3]dioxolo[4,5-f]indol-7-yl) pyrrole-2,5-dione]
[1]
  AUC(0-inf): 45700 ng·h/mL
  Cmax: 6410 ng/mL
  half-life: 18.9 ± 6.3 h
[1]; read-out: AUC(0-24)
  AUC(0-t): 42000 ng·h/mL
[2]; 6 patients (2 NBL, 1 aRMS, 1 EP, 1 OS, 1 GBM)
  patients with stable disease: 26.1%
[2]; 8 pts (2 NBL, 2 EP, 1 OS, 1 aRMS, 1 ES, 1 PB)
  patients remaining on study treatment ≥3 months: 35%
[2]; Adrenocortical carcinoma patient, 9-ING-41 15 mg/kg + Cyclophosphamide/topotecan
  OS (overall survival): 102 days
[2]; Alveolar rhabdomyosarcoma patient, 9-ING-41 9.3 mg/kg + Irinotecan
  OS (overall survival): 375 days
[2]; CIC rearranged sarcoma patient, 9-ING-41 15 mg/kg + Cyclophosphamide/topotecan
  OS (overall survival): 47 days
[2]; [10]
  Best Response: PD (progressive disease)
  Status Last FUP: Dead
  Survival: 48 days
[2]; Embryonal CNS tumor NOS patient, 9-ING-41 9.3 mg/kg + Irinotecan
  OS (overall survival): 262 days
[2]; [11]
  Best Response: PD (progressive disease)
  Status Last FUP: Alive
  Survival: 182 days
[2]; [12]
  Best Response: SD (stable disease)
  Status Last FUP: Dead
  Survival: 440 days
[2]; [13]
  Best Response: SD (stable disease)
  Status Last FUP: Dead
  Survival: 757 days and 526 days
[2]; [14]
  Notes (response): pCR-
  OS (overall survival): 379 days
[2]; Ewing sarcoma patient, 9-ING-41 12.4 mg/kg + Cyclophosphamide/topotecan
  OS (overall survival): 176 days
[2]; [15]
  Status Last FUP: Alive
  Survival: 804 days
[2]; [16]
  Best Response: SD (stable disease)
  Status Last FUP: Dead
  Survival: 177 days
[2]; [17]
  Best Response: SD (stable disease); also recorded: PR (partial response)
  Status Last FUP: Dead and Alive
[2]; Glioblastoma multiforme (GBM) patient, 9-ING-41 12.4 mg/kg + Cyclophosphamide/topotecan
  OS (overall survival): 406 days
[2]; [18]
  Best Response: SD (stable disease)
  Status Last FUP: Alive
  Survival: 407 days
[2]; High grade astrocytoma patient, 9-ING-41 15 mg/kg, combo treatment N/A
  OS (overall survival): 97 days
[2]; Neuroblastoma patient, 9-ING-41 9.3 mg/kg + Irinotecan, 9.3 mg/kg
  OS (overall survival): 245 days and 389 days
[2]; [19]
  Notes (response): pCR-
  OS (overall survival): 308 days
[2]; Neuroblastoma patient, 9-ING-41 15 mg/kg + Cyclophosphamide/topotecan
  OS (overall survival): 113 days
[2]; Neuroblastoma patient, 9-ING-41 15 mg/kg + Irinotecan
  OS (overall survival): 68 days
[2]; [20]
  Best Response: SD (stable disease); also recorded: PD (progressive disease)
  Status Last FUP: Dead
  Survival: 245 days and 389 days
[2]; [21]
  Status Last FUP: Dead
  Survival: 438 days
[2]; [22]
  Best Response: SD (stable disease)
  Status Last FUP: Dead
  Survival: 360 days
[2]; [23]
  Best Response: SD (stable disease)
  Status Last FUP: Alive
  Survival: 440 days
[2]; Osteosarcoma patient, 9-ING-41 9.3 mg/kg + Cyclophosphamide/topotecan
  OS (overall survival): 389 days
[2]; [24]
  Best Response: SD (stable disease)
  Status Last FUP: Alive
  Survival: 481 days
[2]; Progressive ependymoma patient, 9-ING-41 9.3 mg/kg + Cyclophosphamide/topotecan
  OS (overall survival): 407 days
[2]; Recurrent ependymoma patient, 9-ING-41 15 mg/kg + Irinotecan
  OS (overall survival): 403 days
[2]; Rhabdomyosarcoma patient, 9-ING-41 15 mg/kg + Cyclophosphamide/topotecan
  OS (overall survival): 78 days
[2]; Rhabdomyosarcoma patient, 9-ING-41 15 mg/kg + Irinotecan
  OS (overall survival): 19 days
[2]; [25]
  Best Response: SD (stable disease)
  Status Last FUP: Dead
  Survival: 375 days
[2]; heavily pre-treated pediatric patient population
  tolerability: well tolerated
[2]; individual Ewing patients, elraglusib+cyclophosphamide/topotecan
  reduction of tumor at the 1st tumor assessment (partial remission): 52% and 96%
[2]; one metastatic, refractory Ewing patient, elraglusib+cyclophosphamide/topotecan, 2 months of treatment
  tumor response at 1st tumor assessment: complete remission
[2]; one patient with recurrent Ewing's sarcoma, after 3 cycles of elraglusib/cyclophosphamide/topotecan
  radiographic and pathologic response: complete response
[2]; same Ewing patient, stopped all treatments after 4 months
  time in remission with no evidence of disease after termination of treatment: ~2 years
[2]; [26]
  patients continuing on treatment: three of the seven
  patients remaining alive: Four of the seven
[3]
  highest currently tolerated dose level: tolerated dose level in the 1801 adult study (15 mg/kg).
[4]
  PD-L1 expression, western blot: increase
  cPARP (apoptotic marker), western blot: increase
[5]
  PD-L1 expression, western blot: increase
  cPARP (apoptotic marker), western blot: increase
[6]
  IL-8 chemokine: increase
  soluble TRAIL (TRAIL/TNFSF10): increase
[7]
  CXCL11: increase
  IL-18: increased level
[8]
  growth factor TGF-α: homogenous increase
[9]; Saos-2 (only this cancer cell line), 0.5 μM 9-ING-41 for 24 hours
  IL-6: increase
[9]; Saos-2, 0.5 μM 9-ING-41 for 24 hours
  growth factor TGF-α: homogenous increase
